Measured values from PubChem BioAssay AID1626 (SRMLSC, 2009).

Tested on: M. tuberculosis H37Rv growth inhibition
Assay: M. tuberculosis H37Rv growth inhibitors, H37Rv strain (AID 1626)
Conditions: for IC90: measured here: IC90 against H37Rv; for CC50: measured here: Vero cell cytotoxicity

| Compound | IC50 [µM] | IC90 [µM] | CC50 [µM] |
| --- | --- | --- | --- |
| COc1ccc(C[C@H]2CN3C(=NC[C@@H]3Cc3ccc(O)cc3)N2CCNC(=O)c2ccc(C)c(Br)c2)cc1 | 4.4 | 6.16 | > 40 |
| COc1cc(/C=C/C(=O)c2ccc(F)cc2)cc(OC)c1OC | 4.93 | 7.36 | 21.1 |
| CC(C)(C)n1c(O)c(C=Nc2ccc3c(c2)CCC3)c(=O)[nH]c1=O | 37.8 | > 100 | > 40 |
| CCCc1cc(NCc2ccccn2)n2nc(C)c(-c3ccccc3)c2n1 | 4.33 | 7.09 | > 40 |
| CCOC(=O)c1ccc(NC(=O)CSC2=NC(=O)C(CC)C(=O)N2)cc1 (centres undefined) | 24.3 | > 100 | – |
| CCN(CC)Cc1nc2c(c(=O)[nH]1)C1(CCCCC1)Cc1ccccc1-2 | 6.77 | > 100 | – |
| Cc1ccc(Cc2cnc(NC(=O)C3=NCCN3)s2)cc1 | 2.07 | 7.96 | – |
| N=C1SC(c2ccccc2)C(=O)N1c1ncc(Cc2ccccc2)s1 (centres undefined) | 26 | > 100 | 34.9 |
| Cc1nnc(NC(=O)c2ccc3ccccc3n2)s1 | 42.5 | > 100 | > 40 |
| O=C(Nc1nnc(-c2ccco2)o1)c1cccc2ccccc12 | 2.34 | 6.25 | 39.4 |
| O=C(Nc1nc(-c2ccccn2)cs1)c1cc(Cl)ccc1[N+](=O)[O-] | 0.87 | 2.24 | 2.24 |
| CCOC(=O)c1ccc(NC(=O)CCc2nc(-c3ccccc3Cl)no2)cc1 | 0.511 | 57.8 | > 40 |
| COc1ccccc1-c1nnc(NC(=O)c2ccc3ncsc3c2)o1 | 4.17 | > 100 | 24.3 |
| O=C(Nc1nc2ccccc2n1CCN1CCOCC1)c1ccc(Cl)cc1 | 26.5 | > 100 | > 40 |
| O=C1C=C(Nc2ccccc2)c2ccccc2C1=O | 12.3 | 21.2 | 13.7 |
| COc1ccc(/C=C/c2cc(-c3ccc(C)cc3)o[n+]2C)cc1 | 3.21 | 7.34 | > 40 |
| C[C@H](NC(=O)c1[nH]cnc1C(=O)Nc1ccccc1)C(=O)OC(C)(C)C | 1.68 | 5.62 | > 40 |
| COC(=O)CSc1nc2ccc(NC(=O)c3ccccc3C(=O)N3CCOCC3)cc2s1 | 8.89 | > 100 | – |
| CCCCCc1cc(=O)oc2c(C(CCN3CCCC3)c3ccc(N(C)C)cc3)c(OC)cc(OC)c12 (centres undefined) | 4.38 | 6.04 | 14 |
| Cc1[nH]n(C2=NCCS2)c(=O)c1N=Nc1cccc(C(F)(F)F)c1 | 0.387 | 1.47 | 9.46 |
| Cc1[nH]n(-c2ccc(Br)cc2)c(=O)c1C=Nc1ccc(S(=O)(=O)Nc2nccs2)cc1 | 10.9 | > 100 | > 40 |
| CCCC(=O)Nc1cccc(-c2nc3ccccc3c(=O)o2)c1 | 5.72 | 12.1 | – |
| CCC(=O)Nc1ccc(-c2nc3ccccc3c(=O)o2)cc1 | 18 | 84 | – |
| CCC(=O)c1ccc(OCC(=O)Nc2ccc3nc(C)sc3c2)cc1 | 6.26 | > 100 | – |
| N#Cc1ccc(/C=C/C(=O)c2ccccc2)cc1 | 5.89 | 7.86 | > 40 |
| CC1(C)CC(=O)C2=C(C1)OC(N)=C([N+](=O)[O-])C2c1ccc(C#N)s1 (centres undefined) | 10.9 | 15.2 | – |
| CCOC(=O)COc1ccc2c(C#N)c3ccccn3c2c1 | 1.67 | 8.66 | – |

| Compound | IC50 [µM] | IC90 [µM] | CC50 [µM] |
| --- | --- | --- | --- |
| O=c1cc(-c2c(F)c(F)c(F)c(F)c2F)oc2ccccc12 | 0.221 | 2.3 | > 40 |
| COc1ccc(NC(=O)CSc2ncn(-c3ccccc3)n2)cc1Cl | – | > 100 | – |
| N#Cc1c(SCC(N)=O)nsc1SCc1ccccc1Cl | 12.1 | 14.5 | – |
| COC(=O)CSc1ccnc2cc(Cl)ccc12 | 4.25 | 12.3 | – |
| Cc1occc1-c1nnc(SCC(=O)NCCc2ccccc2)o1 | 15 | > 100 | – |
| Cc1[nH]n2c(=O)c3c(nc2c1-c1ccc(Cl)cc1)CCC3 | 13.3 | 31 | 19.6 |
| Nc1c2c(nc3ccn(Cc4ccccc4)c(=O)c13)CCC2 | 7.11 | 15.3 | > 40 |
| O=C(Nc1ccc(Oc2ccccc2)cc1)C1CCCO1 (centres undefined) | 34.2 | > 100 | – |
| Cc1cc(C)nc(-n2nc(C)cc2Nc2ccccc2)n1 | 3.27 | 13.6 | > 40 |
| COc1ccc(NC(=O)N2CCN(c3nc(-c4cccc(OC)c4)cs3)CC2)cc1 | 9.47 | > 100 | > 40 |
| CCc1ccc2c(c1)C1(C(=O)N2)N2CCCC2C(C(=O)c2ccc3ccccc3c2)C12C(=O)Nc1ccccc12 (centres undefined) | 2.97 | > 100 | 17.8 |
| COC(=O)C(CC(C)C)NC(=O)/C=C/c1ccc(Cl)cc1 (centres undefined) | 3.88 | 6.5 | – |
| CCOC(=O)c1cnc(-n2nc(C)cc2C)nc1NC(C)c1ccccc1 (centres undefined) | 1.06 | 2.08 | 36 |
| Cn1c(O)c(C(=Nc2ccccc2)SCc2ccccc2Cl)c(=O)n(C)c1=O | 2.23 | 2.76 | 22.7 |
| Cc1cccc(CN2CCCC(C(=O)c3cccc(OC(C)C)c3)C2)n1 (centres undefined) | 12.3 | > 100 | > 40 |
| COc1cnc(-c2ccccn2)nc1Sc1ccccc1Cl | 1.94 | 6.23 | 7.16 |
| CC(C)=CCOc1ccc([C@@H]2COc3c(ccc4c3C=CC(C)(C)O4)C2)c(O)c1 | 19.4 | 60.9 | > 40 |
| Cn1c(-c2ccc3c(c2)OCO3)cnc1NCc1cccc(Cl)c1 | 11.4 | 13.1 | > 40 |
| O=C(CN1CCN(CC(=O)Nc2ccc(OCc3ccccc3)cc2)CC1)Nc1ccc(F)cc1 | 34.5 | > 100 | – |
| COC(=O)C(CC(C)C)NC(=O)/C=C/c1ccccc1Cl (centres undefined) | 4.67 | 7.81 | – |
| CC(C)Oc1ccc(C(=O)Nc2ccc(Cl)c(S(=O)(=O)Nc3ccc(Cl)cc3)c2)cc1 | 11.6 | 22.4 | 28.9 |
| COC(=O)CSc1nnc(-c2sc3ccccc3c2Cl)o1 | 8.67 | 36.2 | – |
| COC(=O)c1cc(-c2ccc(OC)c(OC)c2)on1 | < 0.391 | > 100 | – |
| S=c1[nH]c2ccc3ccccc3c2[nH]1 | 23.7 | > 100 | > 40 |
| COc1c(C)cc(C(=O)C2CCCN(Cc3cccc(C)n3)C2)cc1C (centres undefined) | 18.6 | > 100 | > 40 |
| CCOC(=O)CNc1ccc(C(=O)OCC)cc1[N+](=O)[O-] | 3.23 | > 100 | – |
| Cc1ccc(C2CC(C(F)(F)F)n3ncc(C(=O)NCc4ccco4)c3N2)cc1 (centres undefined) | < 0.195 | 3.64 | – |

| Compound | IC50 [µM] | IC90 [µM] | CC50 [µM] |
| --- | --- | --- | --- |
| COc1ccc(NC2=CC(c3ccc(OC)cc3)N(c3ccc(OC)cc3)C2=O)cc1 (centres undefined) | – | > 100 | > 40 |
| Cc1ccc(-c2csc(NC(=O)CSc3nc4ccccc4c(=O)n3CCCN(C)C)n2)cc1 | 7.67 | 9.52 | 12 |
| O=C(CCC(=O)OCc1ccc(C(=O)Oc2ccccc2)cc1)Nc1cccc2ccccc12 | 7.06 | 10.1 | > 40 |
| O=c1[nH]c(=O)n(Cc2ccccc2Cl)c(O)c1/C=C1/C=CC=N1 | < 0.391 | 3.23 | 27.2 |
| O=C1CCCCc2sc(Br)c([N+](=O)[O-])c2N1 | 8.43 | 15.4 | 14.4 |
| CSc1ccc(/C=C/C(=O)c2ccc(NC(=O)Cc3ccccc3)cc2)cc1 | 4.66 | > 100 | > 40 |
| Cc1nn2c(NCc3ccccn3)cc(C(C)C)nc2c1-c1ccccc1 | – | – | > 40 |
| O=C(OC(c1ccccc1)c1nccc2ccccc12)c1cc([N+](=O)[O-])cc([N+](=O)[O-])c1 (centres undefined) | 2.14 | 4.48 | > 40 |
| COc1ccc(N=Cc2ccc[nH]2)cc1 | – | > 100 | – |
| CC(C)N=c1cc2n(-c3ccc(Cl)cc3)c3ccccc3nc-2cc1Nc1ccc(Cl)cc1 | < 0.391 | < 0.391 | > 40 |
| CCOC(=O)c1ccc(NC(=O)c2cc3c(s2)CCC3)cc1 | 4.74 | > 100 | – |
| CCNc1nc(NCC)nc(-n2nc(C)cc2C)n1 | 5.04 | 18.4 | – |
| O=C(C=C=Nc1ccccc1)C(=O)N=C=Cc1ccccc1 | 16.4 | 25 | 22.8 |
| Cc1ccc(Nc2c(-c3ccccn3)nc3cccc(C)n23)cc1 | 2.72 | 3.06 | 1.18 |
| COc1cc2c(cc1OC)C1(Nc3c-2c(-c2ccccc2)nn3-c2ccccc2)C(=O)Nc2ccccc21 (centres undefined) | 7.21 | 13.2 | 23.7 |
| CCN(CC)CCC(c1ccc2c(c1)OCO2)c1c(OC)cc(OC)c2c(-c3ccccc3)cc(=O)oc12 (centres undefined) | 13.4 | 21.3 | 16.5 |
| COc1ccc(N=C2C(=O)N3c4c(cccc42)C(C)=CC3(C)C)cc1 | – | > 100 | – |
| COc1cc(OC)cc(C(=O)Nc2nc3ccccc3[nH]2)c1 | 15.9 | > 100 | > 40 |
| COc1cc(/C=C/c2ccc3c(Br)cc(Br)c(O)c3n2)ccc1O | < 0.195 | 0.345 | 14.5 |
| CCCNC(=O)NC(=O)COc1ccc(-c2ccc(C#N)cc2)cc1 | 0.754 | > 100 | – |
| Cc1ccccc1NC(=O)Nc1ccc(C(F)(F)F)cc1 | – | > 100 | 23.5 |
| O=C1c2cc([N+](=O)[O-])cc3cc([N+](=O)[O-])cc(c23)C(=O)N1c1ccccn1 | 2.91 | 3.34 | 35.9 |
| COc1ccccc1C(=O)OCC(=O)Nc1ccc(Cl)cn1 | 22.6 | > 100 | > 40 |
| COc1ccc(C(C(=O)NC2CCCCC2)N(C(=O)c2sc(C)nc2C)c2ccccc2C)cc1 (centres undefined) | 6.96 | 11.4 | > 40 |
| Cc1cc(=O)[nH]c(-n2nc(C)c(Oc3ccccc3O)c2C)n1 | 7.72 | > 100 | > 40 |
